What all share (assay type): in vivo
For test [1], the system named is Puccinia coronata. In words: Control test of crown rust of oat. The settings on record: 125 ppm. The method, then:
(1) Young oats (Cultivar: Pc38) grown in pots in a greenhouse were (i) sprayed with 10 ml each of solution of the test compounds at a prescribed concentration and after air-drying, they were inoculated with 15 mg of uredospores of Puccinia coronata per 20 pots (protective spraying) or (ii) sprayed with the test solution 3 days after inoculation of uredospores. After each plant was kept at 20°-25° C. in a greenhouse for 2 weeks, number of uredia was counted on the first leaf.

The test system of test [2] is Sphaerotheca fuliginea. In words: Control test to powdery mildew of cucumber (foliar and soil treatment). The settings on record: for Foliar Treatment, Curative Effect / Foliar Treatment, Protective Effect / Soil Treatment, Protective Effect: index 0-10; for Protective Index, Foliar Treatment / Protective Index, Soil Treatment: first Table 4, 125 ppm, 14 days. The method, then:
(1) Seeds of cucumber (Cultivar: Matsukaze) were sown in a pot of 9 cm in diameter and the pots were kept in a green house until the plant was grown for 2-3 leaf stage. The first leaf was sprayed with, (i) 3 ml each of solutions containing the test compound at the prescribed concetrations and dried by the air (foliar treatment). Inoculation of spore suspension of Sphaerotheca fuliginea by spraying was practised 2 days before the treatment (curative effect) or 1 day after the treatment (protective effect). Alternatively, (ii) 5 ml of the solution was applied at the root of the seedlings (soil treatment). The pots were kept in a greenhouse for 2 days and inoculation was practised in the same manner noted above. (iii) After sprayed with 3 ml of a solution of the test compound at a concentration of 125 ppm and dried by the air, the treated pots were set in a greenhouse. Untreated pots were placed next to the treated pots. Those treated and untreated plants were inoculated with spore suspension. Protective effect of the test compounds by vapor was thus checked. The effect was examined 14 days after the inoculation of the spores.
0: Disease sign is observed on the whole leaf.
3: Disease sign is observed on the leaf in about 50%.
5: Disease sign is observed on the leaf in about 30%.
7: Disease sign is observed on the leaf in about 20%.
9: a little disease sign is observed.
(§1) (1) Test methods and evaluation are the same as those in Tests 2, 4 and 6.

The subject of test [3] is Sphaerotheca fuliginea. In words: Control test to powdery mildew of cucumber by vapor (filter paper disks). Here is the method: (1) The first leaves of young cucumber (Cultivar: Matsukaze) planted in pot of 9 cm in diameter were inoculated with spore suspension of Sphaerotheca fuliginea. After the plants were kept in a greenhouse for 2 days, thin cover plates, 15 mm in diameter, were put on the first leaves. Filter paper disks soaked with 80 μl of test solution at a concentration of 31.3, 7.8, 2.0 or 0.5 ppm were put on the plates for 3 days. Disease degrees were observed 14 days after the inoculation.
It is evaluated as + when an inhibition zone was observed around the plate, as ± when the inhibition zone has nearly the same diameter (8 mm) as that of plate or as - when there is no inhibition zone.
as §1

The test system of test [4] is Rhizoctonia solani. In words: Control test to damping-off of cucumber (Rhizoctonia solani). The settings on record: soil drench, 14 days. The method, then: (§2) (1) The fungus causing damping-off of cucumber seedlings, Rhizoctonia solani or Fusarium oxysporum was cultured on a wheat bran medium at 28° C. for 5 days, which was mixed with sterilized soil and cultured for 2 days to prepare the inoculum. Sterilized soil (150 g) was put into a pot of 9 cm in diameter. The surface of the spot was covered with the above inoculum. […] Twenty cucumber seeds (Cultivar: Matsukaze) were sown 2 days after. The pots were kept at 30°±2° C. for 14 days. The infection was observed 14 days after and disease degree and percent disease degree were obtained by setting an evaluation index for each disease sympton.
(§3) (2) Evaluation [formula] wherein a: number of seeds without germination b: number of seedlings showing damping-off c: number of wilted seedlings d: number of seedlings being a little brownish in cotyledons or at the bottom of the stem e: number of uninfected seedlings [formula] wherein a: number of seeds without germination or seedlings with damping-off b: number of wilted seedlings c: number of seedlings being a little brownish in cotyledons or at the bottom of the stem d: number of uninfected seedlings [formula]

In test [5] the test system is Fusarium oxysporum. In words: Control test to damping-off of cucumber (Fusarium oxysporum). Particulars: soil drench, 14 days. The method, then: as §2, §3
For test [6], the system named is Botrytis cinerea. In words: Control test of Botrytis rot (gray mold) of cucumber. Here is the method: (1) Seedlings of cucumber (Cultivar: Matsukaze) were planted in a pot of 9 cm in diameter. The first leaf was sprayed with 3 ml each of solutions containing the test compound at the concentration of 125 or 31.3 ppm and the plant was dried by the air. After inoculation of the spores of Botrytis cinerea, the plants were kept at 20°±2° C. and 90-100% humidity ((i) protective spraying). Alternatively, the spores were inoculated at first and when the leaves suffered a little (about 2 days after), the solutions of the test compounds were sprayed ((ii) curative spraying). Evaluation was practised 3 days after the inoculation. Percent disease control was calculated by the ratio of diameter of diseased area in treated and untreated plants.
as §1

The subject of test [7] is Sclerotinia sclerotiorum. In words: Control test to Sclerotinia rot of cucumber. The text has this:
(1) This test was practised in the same manner as in the above test, control test of Botrytis rot (gray mold) of cucumber, except for using the mycelium of Sclerotinia sclerotiorum as inoculm. The same as in test 2.

We go through 6 compounds from US5091539A, “Azolyl cycloalkanol derivatives and agricultural fungicides” (Shionogi & Co., Ltd., priority 1984, dated 1992).

For `CC(C)(C)C(=O)C(Oc1ccc(Cl)cc1)n1cncn1` (stereo not shown) [Triadimefon, reference compound], the “Percent Disease Control, Curative Spraying” value in test [1] stood at 100%. Moreover, the “Percent Disease Control, Protective Spraying” value in test [1] stood at 100%. Also, the “Foliar Treatment, Curative Effect” value turned out to be 0 in test [2] (second Table 4, 0.5 ppm); 9 in test [2] (second Table 4, 2.0 ppm); 10 in test [2] (second Table 4, 7.8 ppm); 10 in test [2] (second Table 4, 31.3 ppm). Moreover, the “Foliar Treatment, Protective Effect” value in test [2] (second Table 4, 0.5 ppm) is 0; in test [2] (second Table 4, 2.0 ppm), 7 (Disease sign is observed on the leaf in about 20%.); in test [2] (second Table 4, 7.8 ppm), 9; in test [2] (second Table 4, 31.3 ppm), 10. Moreover, the “Soil Treatment, Protective Effect” value in test [2] (second Table 4, 0.5 ppm) is listed as 0; in test [2] (second Table 4, 2.0 ppm), 0; in test [2] (second Table 4, 7.8 ppm) it was 3 (Disease sign is observed on the leaf in about 50%.); in test [2] (second Table 4, 31.3 ppm), 10. The “Protective Effect by Vapor” value in test [3] (Table 6, 0.5 ppm) is “-”; in test [3] (Table 6, 2.0 ppm), “-”; in test [3] (Table 6, 7.8 ppm), “-”; in test [3] (Table 6, 31.3 ppm), “-”.

Take `Cc1ccccc1C(=O)Nc1cccc(OC(C)C)c1` [Mepronil, reference compound]: in test [4] (47 ppm), the “Disease Degree” value stood at 77 and the “Percent Disease Control” value is given as 23%. In addition, in test [4] (750 ppm), the “Disease Degree” value is given as 5 and the “Percent Disease Control” value came out at 95%.

On to `O[C@@]1(c2cccc3ccccc23)CCCC[C@H]1n1cncn1` (relative stereo) [Compound 1, cis-1-(1-naphthyl)-2-(1,2,4-triazol-1-yl)/cyclohexanol], for which, in test [1], the “Percent Disease Control, Curative Spraying” value is on record as 100% and the “Percent Disease Control, Protective Spraying” value was 100%. In test [2], the “Protective Index, Foliar Treatment” value was 10 and the “Protective Index, Soil Treatment” value was 5 (Disease sign is observed on the leaf in about 30%.).

For `O[C@@]1(c2ccc(Cl)s2)CCCCC[C@H]1n1cncn1` (relative stereo) [Compound 13, cis-1-(5-chloro-2-thienyl)-2-(1,2,4-triazol-1-yl)cycloheptanol], in test [4] (500 ppm), the “Disease Degree” value stood at 5 and the “Percent Disease Control” value was 95%. In test [2], the “Protective Index, Foliar Treatment” value was found to be 10 and the “Protective Index, Soil Treatment” value was 10. In test [5] (500 ppm), the “Disease Degree” value was found to be 100 and the “Percent Disease Control” value worked out at 0%. Also, in test [6] (Table 2, 125 ppm), the “Percent Disease Control, Curative Spraying” value turned out to be 94% and the “Percent Disease Control, Protective Spraying” value is on record as 100%. Moreover, in test [7] (125 ppm), the “Percent Disease Control, Curative Spraying” value is 95% and the “Percent Disease Control, Protective Spraying” value came to 100%.

As to `O[C@@]1(c2ccc(F)cc2)CCCCC[C@H]1n1cncn1` (relative stereo) [Compound 30], the “Disease Degree” value in test [4] (31.3 ppm) is 18. Besides, the “Percent Disease Control” value in test [4] (31.3 ppm) came out at 82%. Also, the “Foliar Treatment, Curative Effect” value in test [2] (second Table 4, 0.5 ppm) was 7 (Disease sign is observed on the leaf in about 20%.); in test [2] (second Table 4, 2.0 ppm), 10; in test [2] (second Table 4, 7.8 ppm), 10; in test [2] (second Table 4, 31.3 ppm), 10. Moreover, the “Foliar Treatment, Protective Effect” value in test [2] (second Table 4, 0.5 ppm) was 0; in test [2] (second Table 4, 2.0 ppm) it was 9; in test [2] (second Table 4, 7.8 ppm), 10; in test [2] (second Table 4, 31.3 ppm) it was 10. The “Soil Treatment, Protective Effect” value is on record as 0 in test [2] (second Table 4, 0.5 ppm); 0 in test [2] (second Table 4, 2.0 ppm); 10 in test [2] (second Table 4, 7.8 ppm); 10 in test [2] (second Table 4, 31.3 ppm). The “Percent Disease Control, Curative Spraying” value in test [6] (Table 2, 31.3 ppm) came out at 86%; in test [6] (Table 2, 125 ppm), 94%; in test [7] (31.3 ppm), 94%; in test [7] (125 ppm) it was 96%. Moreover, the “Percent Disease Control, Protective Spraying” value in test [6] (Table 2, 31.3 ppm) came to 89%; in test [6] (Table 2, 125 ppm) it was 100%; in test [7] (31.3 ppm), 89%; in test [7] (125 ppm), 100%. The “Protective Effect by Vapor” value was “-” in test [3] (Table 6, 0.5 ppm); “-” in test [3] (Table 6, 2.0 ppm); “+” in test [3] (Table 6, 7.8 ppm); “+” in test [3] (Table 6, 31.3 ppm).

As to `O=C1C2CC=CCC2C(=O)N1SC(Cl)(Cl)Cl` (stereo not shown) [Captan, reference compound], in test [5] (800 ppm), the “Disease Degree” value amounted to 0 and the “Percent Disease Control” value came out at 100%.
